From patent publication US20050043262A1, “Novel specific inhibitor of the cyclin kinase inhibitor p21Waf1/Cip1 and methods of using the inhibitor” (priority 2000, published 2005)

Experiments:
Format in all cases: cell-based, human
MAPK = MAPK level (immunoblot) in ODN-transfected breast cancer cells; details: ODN-transfected cells compared with controls
Procedure: Due to the high levels of p21 in these two human breast cancer cell lines, it was reasoned that, in a manner similar to their effect in VSM cells (Weiss, R. H., Joo, A., and Randour, C., J. Biol. Chem., 275: 10285-10290, 2000), antisense ODNs to p21 may result in increased apoptosis and/or cell cycle arrest. […] T47D and MCF7 cells were lipofected with either antisense p21 ODN (200 or 400 nM), the control ODN at the same concentrations, or lipofectin alone (no DNA). MCF7 and T47D cells were grown to confluence, serum starved for 24 hours, and lipofected with antisense p21 or control ODN or lipofectin only. cont refers to nontransfected cells. The cells were subsequently serum stimulated for another 24 hours. A and B, the cells were lysed, and equal protein quantities (20 μg) were electrophoresed and immunoblotted with p21 antibody. The same lysate was immunoblotted with MAPK antibody as a loading control. Density of p21 and MAPK bands was determined and reported as a ratio. C, the cells were transfected as described in A, fixed, subjected to immunohistochemistry with p21 antibody as described in “Immunohistochemistry” in Example VI, and examined under visible light at X400. Control cells (FIG. 30, cont) were not transfected. […] There was no effect of lipofectin alone when compared with no transfection (control).

MCF7 cells = experiment: [3H]thymidine incorporation in MCF7 cells; details: 200 nM, serum 24 hours
Procedure: Cell Culture and DNA Synthesis: T47D (ductal carcinoma) and MCF7 (adenocarcinoma) human breast cancer cell lines were obtained from the American Type Culture Collection. All cell lines were maintained according to vendors' recommendations. The cells were growth arrested by placing them in serum-free quiescence media and exposed to 10% serum-containing media as indicated. [^3H]Thymidine incorporation was assessed as described previously (Weiss, R. H., and Nuccitelli, R., J. Biol. Chem., 267: 5608-5613, 1992).
Apoptotic cells will not incorporate thymidine into DNA during S phase, but [^3H]thymidine incorporation experiments will not distinguish between G1→S arrest and apoptosis. Serum-starved cells were transfected with 200 nM antisense p21 and control ODN, stimulated with serum-containing media, and examined for their ability to incorporate [^3H]thymidine into DNA. […] Antisense p21 attenuates [^3H]thymidine incorporation. MCF7 and T47D cells were grown to confluence, serum starved for 24 hours, and lipofected with antisense p21 (AS) or control (SC) ODN at the concentrations indicated (in nM). […] Serum was added for 24 hours, and the cells were incubated with [^3H]thymidine for the last 6 hours. DNA synthesis was assessed by [^3H]thymidine incorporation and is expressed as mean +SD of 3 wells/data point. *, P <0.05 compared with antisense p21 ODN transfection. […]

p21^Waf1/Cip1 = experiment: PMA-induced p21 level by Western blot in A431 cells; details: 200 nM oligodeoxynucleotide, PMA 100 ng/ml up to 6 hours
Procedure: Western blots: Cells were grown to confluence in 6 cm culture dishes and serum deprived. After transfection and or treatment with appropriate agonist, the cells were washed with phosphate-buffered saline and lysed in lysis buffer and the supernatant was Western blotted as described (Weiss and Nuccitelli, 1992 J. Biol. Chem., 267, p. 5608-5613).
PMA is a potent inducer of p21^Waf1/Cip1 in a variety of different cell lines (Huang et al., 1995 Proc. Natl. Acad. Sci. US.A., 92, p. 4793-4797; Michieli et al., 1994 Cancer Res., 54, p. 3391-3395) and was employed to examine p21^Waf1/Cip1 levels after antisense transfection and confirm efficacy of translation to attenuate p21^Waf1/Cip1 levels. A431 cells were transfected with 200 nM antisense p21^Waf1/Cip1 (SEQ. ID NO.:1) or sense p21^Waf1/Cip1 oligodeoxynucleotide (SEQ. ID NO.:2). After overnight incubation in serum-free medium, the cells were stimulated with PMA (100 ng/ml) for the times indicated, lysed, and the lysates were Western blotted with p21^Waf1/Cip1 or α-actin antibody.

A431 cells = experiment: [3H]thymidine incorporation (DNA synthesis) in A431 cells
Procedure: FIG. 9A-D are bar graphs showing Antisense p21^Waf1/Cip1 oligodeoxynucleotide has no significant effect DNA synthesis in PMA-inhibitable A431 cells, as described in Example II, infra. […] A431 cells were placed in serum-free medium overnight and then stimulated with (A) PDGF-BB (30 ng/ml), (B) 10% serum-containing medium, or (C) PDGF-BB or PMA (100 ng/ml) for another 8 hours before [^3H]-thymidine was added for overnight incubation. (D) A10 VSM cells were transfected with sense and antisense p21^Waf1/Cip1 oligonucleotides as above and treated similarly to (B). DNA synthesis was assessed by [^3H]-thymidine incorporation and is expressed as mean ±s.e.m. of three wells per data point. The absolute counts differ between experiments due to different confluency of the cells. The experiments shown are representative of two separate experiments.
Cell culture and DNA synthesis: Cultures of A10 and A431 cells were obtained from American Type Culture Collection (Rockville Md), were maintained as described (Weiss et al. 1998, Am. J. Physiol. 274, C1521-C1529), and were used between passages 15 and 24 or 25 and 35, respectively. The cells were growth-arrested by placing them in serum-free quiescence medium, exposed to growth factors as indicated, and [^3H]thymidine incorporation assessed as previously described (Weiss and Nuccitelli, 1992, J. Biol. Chem. 267, 5608-5613).
This A431 data is in contrast with that obtained in a variety of VSM cell lines, where cell growth was inhibited by similar oligodeoxynucleotide concentrations in cell stimulated with both PDGF-BB and serum (FIG. 9d).

Substance | MAPK levels (MAPK) | [3H]thymidine incorporation (DNA incorporation) (MCF7 cells) | PMA-induced p21^Waf1/Cip1 levels (p21^Waf1/Cip1) | DNA synthesis upon stimulation with PDGF or serum (A431 cells; 0 to 400 nM oligodeoxynucleotide) | difference in DNA synthesis between sense and antisense (A431 cells; up to 800 nM)
5′-ATC-CCC-AGC-CGG-TTC-TGA-CAT-3′ (antisense ATCCCCAGCCGGTTCTGACAT; listed as DNA, chemistry not fully specified) [antisense p21 ODN] | lack of modulation | significant attenuation |  |  | 
5′-GACATCACCAGGATCGGACAT-3′ |  |  | significant attenuation | no significant change | no difference
